Data taken from patent US20250388571A1, “AMP-ACTIVATED PROTEIN KINASE MODULATOR COMPOUNDS AND USES THEREOF” (Biolexis Therapeutics, Inc., priority 2024, published 2025).
Like-named read-outs stand apart in the source and are kept apart here.

Experiments:
db/db mice = conditions: for Plasma Cholesterol / Plasma HDL / Plasma LDL / Plasma Triglyceride: end of the study; for Absolute Liver Weight / Absolute Liver Weight (g) [table follows b2014 on epididymal adipose tissue weight] / Relative Epididymal Tissue Weight / Relative Liver Weight: necropsy; for Fasting Plasma Glucose (mg/dL), OGTT: OGTT day 21, before glucose load 1 gram/kg
Experimental: The doses of the test item to be administered were calculated daily in mg/kg based on the latest bodyweight of the animal. The dose volume was calculated based on mg/kg of body weight and adjusted with each bodyweight collection. Dose and route of the test compounds administration are selected as per the supporting literature.
Male db/db mice were procured from The Jackson Laboratory. All the animals were allowed to quarantine for 7 days and acclimatize for one day prior to experiment initiation. During this period, mice were observed daily once for clinical signs. On Day 1, Animals were randomized based on body weight and blood glucose levels (Accu-Chek) into three groups. […] During the study period the body weight of mice was recorded weekly thrice, and clinical scoring was done on daily basis. The OGTT was performed on day 21. On day 36 blood was collected and centrifuged at 4° C., 10,000 RPM for 10 minutes for plasma collection. The plasma stored at −80° C. for estimation of plasma HDL and LDL. All the animals were humanely sacrificed by CO2. At the time of necropsy liver, adipose tissue and pancreas weight were taken. The liver and pancreas were stored at −80° C.
A mixture of DMSO (2%), Cremophor EL (2%), Tween 80 (1%), 0.5% methyl cellulose (35%), and water (60%) was used for the formulation. Doses were prepared at concentrations of 30 and 50 mg/kg. Administration was oral, daily for 36 days. Male mice (Mus musculus; db/db C57BL/6) aged 8-9 weeks and weighing less than or equal to 40 grams were used for the study. Groups were assigned 10 mice per group.
During the study period body weight of mice were recorded weekly thrice and clinical scoring were done on daily basis. The OGTT was performed on day 21. On day 36 blood was collected and centrifuged at 4° C., 10000 RPM for 10 minutes for plasma collection. The plasma stored at −80° C. for estimation of plasma HDL and LDL. All the animals were humanely sacrificed by CO2. At the time of necropsy liver, adipose tissue and pancreas weight were taken. Liver and pancreas were stored at −80° C.
Cage-side observations were made to detect any changes and general activity of the animals.
Body weight of each mouse was recorded at the time of randomization and thrice a week during study period. OGTT were done at day 21. On day 20 mice were fasted over night and on day 21 mice were treated with respective treatment-60 minute prior to glucose load 1 gram/kg. Plasma glucose was measured at 0 min (before glucose load), 15 min, 30 min, 60 min, 90 min and 120 min.
Glucose estimation in urine was done at terminal point on day 32. The urine of individual mice was collected by placing the mice in metabolic cages. Urine glucose levels were measured by calorimetric method in collected urine.
Plasma lipid profile: Triglyceride, HDL and LDL were performed at the end of the study by appropriate kit or using Fully Auto Biochemistry Analyzer Selectra PRO M Lite. Fat pad weight was recorded at terminal point. Fructosamine were measured by ELISA kit (Biomol, G-MOEB2562.96).
All data is expressed as mean±SEM unless otherwise noted. Statistical analysis was done with GraphPad Prism-5 using one-way ANOVA followed by Dunnett's test/Tukey's post hoc test. Data were considered statistically significant if P value is less than 0.05.

[1] = tested on: AMPK signal pathway in C2C12 cells; test: Western blot assay, C2C12 cells
Experimental: Samples for immunoblotting studies were prepared for electrophoresis by adding in a final concentration of 1× Laemmli loading buffer (supplemented with 5% 2-mercaptoethanol). Samples were then electrophorized by SDS-PAGE (4-15% or 4-20% Criterion TGX Precast gel, Bio-Rad) at a constant voltage within the range of 140V. Proteins were transferred to a nitrocellulose membrane (Bio-Rad) using the Trans-Blot Turbo transfer system (Bio-Rad). Membranes were blocked with 5% BSA in TBST for a minimum of 1 hour at room temperature before incubating with the following primary antibodies: • Phospho-AMPKα (Thr172) (40H9) Rabbit mAb (CST, cat no: 2535S), • AMPKα Antibody (CST, cat no: 2532S) • Phospho-Raptor (Ser792) Antibody (CST, cat no: 2083S) • Raptor (24C12) Rabbit mAb (CST, cat no: 2280S) • Phospho-Acetyl-CoA Carboxylase (Ser79) Antibody (CST, cat no: 3661S) • Acetyl-CoA Carboxylase Antibody (CST, cat no: 3662S) • AMPKα2 Antibody (CST, cat no: 2757S) • AMPKβ1 antibody (CST, cat no: 12063) • AMPKβ2 Antibody (CST, CST, cat no: 4148S) • AMPKγ3 Antibody (CST, cat no: 2550S). […]
After differentiation of cells (e.g., HSKM, C2C12, L6) for 5 days, medium was changed to DHEM without FBS and glucose for starving cells for 2 hours. […] The resultant reaction mixture was then assayed and semi-quantitative histogram analysis of Western Blotting (signal value) was used to determine results.

HSKM cells = test: CyQUANT Cytotoxicity Assay (G6PD assay), HSKM; conditions: treated 2 hours
Experimental: The CyQUANT Cytotoxicity Assay (Thermofisher, cat no: V23111) was used to detect damaged and dying cells by means of their release of glucose 6-phosphate dehydrogenase into the surrounding medium. Cells were plated in a 96-well microplate (500-25,000 cells/well in a 50-μL volume). Three sets of triplicate wells were reserved for the following controls: a no-cell control (medium alone), untreated cells, and completely lysed cells. Cells were starved for 2 h and then add the indicated AMPK activators (50 μL) to the experimental wells and incubate for 2 hours, 50 μL of 2× reaction mixture was added to each well. 1 μL of 100× Cell-Lysis buffer was added to the completely lysed control wells only. Cells were incubated at 37° C. for 10-30 minutes. Fluorescence was measured (excitation 530-560 nm, emission 580-600 nm) at 5-minute intervals to determine the optimal time point for the experiment.
To text toxicity, after differentiation of human skeletal muscle cells, HSKM were starved with DMEM medium without FBS/glucose for 2 hours. […] The resultant reaction mixture was then assayed for glucose 6-phosphate dehydrogenase release. An untreated control sample and completely lysed cells were detected for comparison. The fluorescence was measured in a microplate reader (excitation/emission ˜530/590 nm).

[2] = tested on: AMPK signal pathway in human liver cells-HepG2; test: Western blot assay, HepG2 cells
Experimental: Samples for immunoblotting studies were prepared for electrophoresis by adding in a final concentration of 1× Laemmli loading buffer (supplemented with 5% 2-mercaptoethanol). Samples were then electrophorized by SDS-PAGE (4-15% or 4-20% Criterion TGX Precast gel, Bio-Rad) at a constant voltage within the range of 140V. Proteins were transferred to a nitrocellulose membrane (Bio-Rad) using the Trans-Blot Turbo transfer system (Bio-Rad). Membranes were blocked with 5% BSA in TBST for a minimum of 1 hour at room temperature before incubating with the following primary antibodies: • Phospho-AMPKα (Thr172) (40H9) Rabbit mAb (CST, cat no: 2535S), • AMPKα Antibody (CST, cat no: 2532S) • Phospho-Raptor (Ser792) Antibody (CST, cat no: 2083S) • Raptor (24C12) Rabbit mAb (CST, cat no: 2280S) • Phospho-Acetyl-CoA Carboxylase (Ser79) Antibody (CST, cat no: 3661S) • Acetyl-CoA Carboxylase Antibody (CST, cat no: 3662S) • AMPKα2 Antibody (CST, cat no: 2757S) • AMPKβ1 antibody (CST, cat no: 12063) • AMPKβ2 Antibody (CST, CST, cat no: 4148S) • AMPKγ3 Antibody (CST, cat no: 2550S).

## O=c1[nH]c(-c2c[nH]c3cc(F)c(-c4ccc(C5(O)CCC5)cc4)c(F)c23)no1 [Compound I-11, 3-(4,6-difluoro-5-(4-(1-hydroxycyclobutyl)phenyl)-1H-indol-3-yl)-1,2,4-oxadiazol-5(4H)-one]
db/db mice; 30 mg/kg p.o. QD
  Fasting Fructosamine: 1164.8 ± 105.5 ng/mL
  Fasting Plasma HbA1c: 60.13 ± 7.73 ng/mL
  Fasting Plasma Insulin: 4.6 ± 0.5 ng/mL
  Plasma Cholesterol: 118.13 ± 8.39 mg/dL
  Plasma HDL: 145.41 ± 11.48 mg/dL
  Plasma LDL: 23.58 ± 2.93 mg/dL
  Plasma Triglyceride: 156.87 ± 17.41 mg/dL
  Absolute Liver Weight: 2.34 ± 0.07 g
  Absolute Liver Weight (g) [table follows b2014 on epididymal adipose tissue weight]: 2.42 ± 0.10 g
  Relative Epididymal Tissue Weight: 0.057 ± 0.002 g
  Relative Liver Weight: 0.055 ± 0.001 g
db/db mice; 30 mg/kg p.o. QD, Day 36
  Fasting Blood Glucose (~12 hrs): 335.70 ± 16.88 mg/dL
db/db mice; 30 mg/kg p.o. QD, day 32
  Urine Glucose: 1694.43 ± 10.56 mg/dL
db/db mice; 30 mg/kg, OGTT day 21
  15 min Plasma Glucose (mg/dL), OGTT: 676.20 ± 19.94 mg/dL
  30 min Plasma Glucose (mg/dL), OGTT: 619.54 ± 26.68 mg/dL
  60 min Plasma Glucose (mg/dL), OGTT: 520.87 ± 46.63 mg/dL
  120 min Plasma Glucose (mg/dL), OGTT: 397.78 ± 9.65 mg/dL
  glucose area under the curve (AUC), OGTT: 61613.10 ± 2572.98 mg·min/dL
db/db mice; 30 mg/kg
  Fasting Plasma Glucose (mg/dL), OGTT: 287.70 ± 34.54 mg/dL
db/db mice; 30 mg/kg, statistically not significant
  decrease in the plasma glucose compared to vehicle control (OGTT): 7.5%
db/db mice; 50 mg/kg p.o. QD
  Fasting Fructosamine: 954.2 ± 45.6 ng/mL
  Fasting Plasma HbA1c: 39.82 ± 4.31 ng/mL
  Fasting Plasma Insulin: 5.2 ± 0.8 ng/mL
  Plasma Cholesterol: 97.30 ± 8.76 mg/dL
  Plasma HDL: 110.76 ± 9.17 mg/dL
  Plasma LDL: 14.78 ± 1.62 mg/dL
  Plasma Triglyceride: 97.55 ± 11.60 mg/dL
  Absolute Liver Weight: 2.34 ± 0.06 g
  Absolute Liver Weight (g) [table follows b2014 on epididymal adipose tissue weight]: 2.58 ± 0.07 g
  Relative Epididymal Tissue Weight: 0.061 ± 0.001 g
  Relative Liver Weight: 0.056 ± 0.001 g
db/db mice; 50 mg/kg, OGTT day 21
  15 min Plasma Glucose (mg/dL), OGTT: 670.72 ± 23.88 mg/dL
  30 min Plasma Glucose (mg/dL), OGTT: 560.85 ± 37.42 mg/dL
  60 min Plasma Glucose (mg/dL), OGTT: 485.98 ± 32.31 mg/dL
  120 min Plasma Glucose (mg/dL), OGTT: 378.40 ± 18.24 mg/dL
  glucose area under the curve (AUC), OGTT: 57436.00 ± 2283.79 mg·min/dL
db/db mice; 50 mg/kg
  Fasting Plasma Glucose (mg/dL), OGTT: 204.64 ± 29.60 mg/dL
db/db mice; 50 mg/kg, significant
  decrease in the plasma glucose compared to vehicle control (OGTT): 14%
db/db mice; 30 & 50 mg/kg p.o. QD, day 21, 28, and 36
  fasting blood glucose levels compared with vehicle control, dose dependence: dose-dependent decrease
db/db mice; 30 and 50 mg/kg oral, daily for 36 days
  clinical signs, morbidity, mortality: no observations of clinical signs or morbidity, and no mortality
db/db mice; 30 and 50 mg/kg, OGTT day 21
  glucose as measured by area under the curve (AUC), dose dependence: dose dependent decreases
[1]
  pAMPK/pACC/AMPKα2β1β2γ3 expression: also induce
HSKM cells
  toxicity compared to reference compounds MK-8722 and PF-06409577 (G6PD release): less toxicity
[2]
  p-AMPK/p-ACC and AMPKα2β1β2γ3 activation: dosage-dependent manner
